This is an account of results in patent US10683269B2 (MISSION THERAPEUTICS LIMITED, priority 2016, dated 2020).

As a reminder, the IC50 is the concentration that gives 50% inhibition.

The target of this test is T1, USP7 (Homo sapiens, UniProt Q93009).
T1 construct: The USP7 construct was PCR amplified and cloned into a pFLAG-CMV-6a vector (Sigma-Aldrich) with an N-terminal FLAG tag; made in house; host or cells: HEK293T
T1 sequence (Q93009 whole entry): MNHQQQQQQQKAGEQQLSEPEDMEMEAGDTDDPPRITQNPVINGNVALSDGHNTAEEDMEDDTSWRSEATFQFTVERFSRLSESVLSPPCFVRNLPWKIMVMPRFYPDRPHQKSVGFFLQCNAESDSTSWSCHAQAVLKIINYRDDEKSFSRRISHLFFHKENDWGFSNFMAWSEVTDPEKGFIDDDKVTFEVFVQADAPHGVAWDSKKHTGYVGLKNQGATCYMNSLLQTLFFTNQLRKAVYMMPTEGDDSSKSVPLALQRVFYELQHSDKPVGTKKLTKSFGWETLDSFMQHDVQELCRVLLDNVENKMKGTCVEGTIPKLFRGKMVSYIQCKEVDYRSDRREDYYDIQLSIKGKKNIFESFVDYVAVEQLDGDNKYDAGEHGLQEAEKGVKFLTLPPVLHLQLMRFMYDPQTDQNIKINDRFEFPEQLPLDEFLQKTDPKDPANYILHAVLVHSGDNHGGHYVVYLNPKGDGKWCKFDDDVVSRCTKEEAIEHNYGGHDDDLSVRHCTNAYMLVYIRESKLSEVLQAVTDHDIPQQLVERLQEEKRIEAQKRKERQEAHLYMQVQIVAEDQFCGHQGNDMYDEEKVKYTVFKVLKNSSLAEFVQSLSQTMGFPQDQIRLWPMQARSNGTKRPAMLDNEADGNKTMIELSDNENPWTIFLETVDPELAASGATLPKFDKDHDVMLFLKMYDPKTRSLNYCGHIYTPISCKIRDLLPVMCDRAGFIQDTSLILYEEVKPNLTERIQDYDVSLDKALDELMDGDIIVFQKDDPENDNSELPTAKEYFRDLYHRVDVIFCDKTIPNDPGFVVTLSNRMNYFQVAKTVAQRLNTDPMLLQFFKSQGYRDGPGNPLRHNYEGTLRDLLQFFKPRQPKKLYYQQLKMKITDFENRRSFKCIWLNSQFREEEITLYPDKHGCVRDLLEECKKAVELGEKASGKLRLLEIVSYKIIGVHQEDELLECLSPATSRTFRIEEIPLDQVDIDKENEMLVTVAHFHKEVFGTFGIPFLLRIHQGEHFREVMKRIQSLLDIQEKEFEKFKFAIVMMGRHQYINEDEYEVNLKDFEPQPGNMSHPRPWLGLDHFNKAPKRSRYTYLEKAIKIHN
The experiment in a line: USP7 biochemical IC50 assay (fluorescence polarisation, TAMRA labelled peptide linked to ubiquitin via an iso-peptide bond). The settings on record: 30 min pre-incubation of enzyme and compound, read after 2 hr incubation at room temperature, read-out: IC50 range. The protocol:
In Vitro USP7 Inhibition Assay
Expression and Purification of USP7
The USP7 construct was PCR amplified and cloned into a pFLAG-CMV-6a vector (Sigma-Aldrich) with an N-terminal FLAG tag. HEK293T cells were transfected with FLAG-USP7 using TransIT-LT1 transfection reagent (Mirus) according to the manufacturer's instructions. Cells were harvested 40 hours after transfection. […] The resin was washed two times with low salt buffer plus protease inhibitors (complete mini, Roche) and phosphatase inhibitors (PhosSTOP mini, Roche) and one time with high salt buffer (20 mM Tris, pH 7.5, 500 mM NaCl, 0.5 mM EDTA, 5 mM beta-mercaptoethanol, protease inhibitors (complete mini, Roche) and phosphatase inhibitors (PhosSTOP mini, Roche). To elute the bound USP7, elution buffer (10 mM Tris, pH 7.5, 150 mM NaCl, 0.5 mM EDTA, 10% glycerol, 0.5% NP40, 5 mM beta-mercaptoethanol, 0.15 mg/ml 3×FLAG peptide (Sigma-Aldrich)) was added to the resin and incubated at 4° C. for 2.5 hours rotating. The resin was centrifuged at 4000 rpm for 30 seconds, and the supernatant containing purified FLAG-USP7 was removed and stored at −80° C.
USP7 Biochemical IC50 Assay
A typical 8-point dilution series would be 100, 30, 10, 3, 1, 0.3, 0.1, 0.03 μM final. […] Either 1 μl of 50% DMSO or diluted compound was added to the plate. USP7 was diluted in reaction buffer (20 mM Tris, pH 7.5, 100 mM NaCl, 0.05% Tween 20, 0.5 mg/ml BSA, 5 mM—beta mercaptoethanol) to the equivalent of 0.0025 μl/well and 10 μl of diluted USP7 was added to the compound. Enzyme and compound were incubated for 30 min at room temp. Reactions were initiated by the addition of 50 nM of TAMRA labelled peptide linked to ubiquitin via an iso-peptide bond as fluorescence polarisation substrate. Reactions were read immediately after addition of substrate and following a 2 hr incubation at room temperature. Readings were performed on a Pherastar Plus (BMG Labtech). λ Excitation 540 nm; λ Emission 590 nm.
For the compound `CN1CCCC(C(=O)Nc2cc3c(c(-c4ccccc4)c2)CN(C#N)C3)C1` (racemic) [Example 36, N-(2-cyano-7-phenylisoindolin-5-yl)-1-methylpiperidine-3-carboxamide], the IC50 was less than 1000 nM.
As for `CN1CCOC(CNc2nc3c(c(-c4ccccc4)n2)CN(C#N)C3)C1` (single isomer, unassigned) [Example 152, 2-(((4-methylmorpholin-2-yl)methyl)amino)-4-phenyl-5,7-dihydro-6H-pyrrolo[3,4-d]pyrimidine-6-carbonitrile], the IC50 fell in the range of 1000 to 10000 nM.
In the case of `CN1CCOC(CNc2nc3c(c(-c4ccccc4)n2)CN(C#N)C3)C1` (single isomer, unassigned) [Example 153, 2-(((4-methylmorpholin-2-yl)methyl)amino)-4-phenyl-5,7-dihydro-6H-pyrrolo[3,4-d]pyrimidine-6-carbonitrile], the IC50 was less than 1000 nM.
The same measure for `CC1c2cccc(-c3ccc(Cl)cc3C(N)=O)c2CN1C#N` (single isomer, unassigned) [Example 258, 5-chloro-2-(2-cyano-1-methylisoindolin-4-yl)benzamide]: 10000 to 30000 nM; for `CC1c2cccc(-c3ccc(C#N)cc3C(N)=O)c2CN1C#N` (single isomer, unassigned) [Example 259, 5-cyano-2-(2-cyano-1-methylisoindolin-4-yl)benzamide]: 1000 to 10000 nM; for `N#Cc1ccc(-c2cccc3c2CN(C#N)C3)c(C(N)=O)c1` [Example 1, 5-cyano-2-(2-cyanoisoindolin-4-yl)benzamide]: 1000 to 10000 nM.
Regarding `N#CN1Cc2cccc(-c3ccc(Cl)cc3C(N)=O)c2C1` [Example 2, 5-chloro-2-(2-cyanoisoindolin-4-yl)benzamide], the IC50 lay in the range of 1000 to 10000 nM.
The same measure for `Cc1ccc(-c2cccc3c2CN(C#N)C3)c(C(N)=O)c1` [Example 3, 2-(2-cyanoisoindolin-4-yl)-5-methylbenzamide]: 1000 to 10000 nM; for `N#Cc1ccc(-c2cccc3c2CN(C#N)C3)c(C(=O)N2CCC2)c1` [Example 4, 4-(2-(azetidine-1-carbonyl)-4-cyanophenyl)isoindoline-2-carbonitrile]: 1000 to 10000 nM.
The same measure for `Cn1cc(Nc2cc3c(c(-c4ccccc4)c2)CN(C#N)C3)cn1` [Example 5, 6-((1-methyl-1H-pyrazol-4-yl)amino)-4-phenylisoindoline-2-carbonitrile]: less than 1000 nM.
The same measure for `N#CN1Cc2cccc(-c3ccccc3)c2C1` [Example 6, 4-phenylisoindoline-2-carbonitrile]: 1000 to 10000 nM; for `Cn1cc(-c2cccc3c2CN(C#N)C3)cn1` [Example 7, 4-(1-methyl-1H-pyrazol-4-yl)isoindoline-2-carbonitrile]: 1000 to 10000 nM.
Take `N#CN1Cc2cccc(-c3cnc4ccccc4c3)c2C1` [Example 8, 4-(quinolin-3-yl)isoindoline-2-carbonitrile]: the IC50 was 1000 to 10000 nM.
The same measure for `N#CN1Cc2cccc(-c3cnc4[nH]ccc4c3)c2C1` [Example 9, 4-(1H-pyrrolo[2,3-b]pyridin-5-yl)isoindoline-2-carbonitrile]: 1000 to 10000 nM; for `CN1CC=C(c2cccc3c2CN(C#N)C3)CC1` [Example 10, 4-(1-methyl-1,2,3,6-tetrahydropyridin-4-yl)isoindoline-2-carbonitrile]: 1000 to 10000 nM.
The same measure for `Cn1cc2cc(-c3cccc4c3CN(C#N)C4)ccc2n1` [Example 11, 4-(2-methyl-2H-indazol-5-yl)isoindoline-2-carbonitrile]: 1000 to 10000 nM; for `Cc1ccccc1-c1cccc2c1CN(C#N)C2` [Example 12, 4-(o-tolyl)isoindoline-2-carbonitrile]: 1000 to 10000 nM; for `N#Cc1ccc(-c2cccc3c2CN(C#N)C3)cc1` [Example 13, 4-(4-cyanophenyl)isoindoline-2-carbonitrile]: 1000 to 10000 nM.
Next, `CN1CCC(c2cccc3c2CN(C#N)C3)CC1` [Example 14, 4-(1-methylpiperidin-4-yl)isoindoline-2-carbonitrile]: 30000 to 100000 nM; `N#CN1Cc2nccc(-c3cccc(C(=O)NCc4ccccc4)c3)c2C1` [Example 15, N-benzyl-3-(6-cyano-6,7-dihydro-5H-pyrrolo[3,4-b]pyridin-4-yl)benzamide]: 10000 to 30000 nM; `N#CN1Cc2nccc(-c3ccc(Cl)cc3)c2C1` [Example 16, 4-(4-chlorophenyl)-5,7-dihydro-6H-pyrrolo[3,4-b]pyridine-6-carbonitrile]: 1000 to 10000 nM.
`COc1ccc(-c2ccnc3c2CN(C#N)C3)cc1` [Example 17, 4-(4-methoxyphenyl)-5,7-dihydro-6H-pyrrolo[3,4-b]pyridine-6-carbonitrile]: the IC50 was in the range of 1000 to 10000 nM.
Next, `N#CN1Cc2nccc(-c3cccc(Cl)c3)c2C1` [Example 18, 4-(3-chlorophenyl)-5,7-dihydro-6H-pyrrolo[3,4-b]pyridine-6-carbonitrile]: 1000 to 10000 nM; `N#CN1Cc2ccnc(-c3ccccc3)c2C1` [Example 19, 4-phenyl-1,3-dihydro-2H-pyrrolo[3,4-c]pyridine-2-carbonitrile]: 1000 to 10000 nM; `Cc1nc(-c2cc3c(c(-c4ccccc4)c2)CN(C#N)C3)no1` [Example 20, 6-(5-methyl-1,2,4-oxadiazol-3-yl)-4-phenylisoindoline-2-carbonitrile]: 1000 to 10000 nM.
Next, `N#CN1Cc2cccc(Nc3ncc4ccccc4n3)c2C1` [Example 21, 4-(quinazolin-2-ylamino)isoindoline-2-carbonitrile]: 1000 to 10000 nM; `CNC(=O)c1ccc2cnc(Nc3cccc4c3CN(C#N)C4)cc2c1` [Example 22]: 1000 to 10000 nM.
The same measure for `N#CN1Cc2cc(NC(=O)c3cccnc3)cc(-c3ccccc3)c2C1` [Example 23, N-(2-cyano-7-phenylisoindolin-5-yl)nicotinamide]: 30000 to 100000 nM; for `CC(=O)Nc1cc2c(c(-c3ccccc3C(N)=O)c1)CN(C#N)C2` [Example 24, 2-(6-acetamido-2-cyanoisoindolin-4-yl)benzamide]: 1000 to 10000 nM; for `CN1CCC[C@@H](C(=O)Nc2cc3c(c(-c4cccc(F)c4)c2)CN(C#N)C3)C1` [Example 25, (R)-N-(2-cyano-7-(3-fluorophenyl)isoindolin-5-yl)-1-methylpiperidine-3-carboxamide]: less than 1000 nM.
As for `CN1CCC[C@@H](C(=O)Nc2cc3c(c(-c4ccc(C#N)cc4)c2)CN(C#N)C3)C1` [Example 26, (R)-N-(2-cyano-7-(4-cyanophenyl)isoindolin-5-yl)-1-methylpiperidine-3-carboxamide], the IC50 is less than 1000 nM.
The same measure for `CN1CCC[C@@H](C(=O)Nc2cc3c(c(-c4cccc(C#N)c4)c2)CN(C#N)C3)C1` [Example 27, (R)-N-(2-cyano-7-(3-cyanophenyl)isoindolin-5-yl)-1-methylpiperidine-3-carboxamide]: less than 1000 nM; for `CN1CCC[C@@H](C(=O)Nc2cc3c(c(-c4ccc(F)cc4)c2)CN(C#N)C3)C1` [Example 28, (R)-N-(2-cyano-7-(4-fluorophenyl)isoindolin-5-yl)-1-methylpiperidine-3-carboxamide]: less than 1000 nM.
The same measure for `CNC(=O)c1ccc(-c2cc(NC(=O)[C@@H]3CCCN(C)C3)cc3c2CN(C#N)C3)cc1` [Example 29, (R)-N-(2-cyano-7-(4-(methylcarbamoyl)phenyl)isoindolin-5-yl)-1-methylpiperidine-3-carboxamide]: less than 1000 nM; for `CNC(=O)c1cccc(-c2cc(NC(=O)[C@@H]3CCCN(C)C3)cc3c2CN(C#N)C3)c1` [Example 30]: 1000 to 10000 nM; for `COc1cccc(-c2cc(NC(=O)[C@@H]3CCCN(C)C3)cc3c2CN(C#N)C3)c1` [Example 31, (R)-N-(2-cyano-7-(3-methoxyphenyl)isoindolin-5-yl)-1-methylpiperidine-3-carboxamide]: 1000 to 10000 nM.
The same measure for `COc1ccc(-c2cc(NC(=O)[C@@H]3CCCN(C)C3)cc3c2CN(C#N)C3)cc1` [Example 32, (R)-N-(2-cyano-7-(4-methoxyphenyl)isoindolin-5-yl)-1-methylpiperidine-3-carboxamide]: less than 1000 nM; for `CN1CCC[C@@H](C(=O)Nc2cc3c(c(-c4ccc(Cl)cc4)c2)CN(C#N)C3)C1` [Example 33, (R)-N-(7-(4-chlorophenyl)-2-cyanoisoindolin-5-yl)-1-methylpiperidine-3-carboxamide]: less than 1000 nM; for `CN1CCC[C@@H](C(=O)Nc2cc3c(c(-c4cccc(Cl)c4)c2)CN(C#N)C3)C1` [Example 34, (R)-N-(7-(3-chlorophenyl)-2-cyanoisoindolin-5-yl)-1-methylpiperidine-3-carboxamide]: 1000 to 10000 nM.
